ChEMBL document CHEMBL4507257, “Data for DCP probe ABT-100” (2021)

Experiments:
[1] = molecular target: BMP-2-inducible protein kinase (Homo sapiens) (UniProt Q9NSY1); conditions: Compound concentration 1000.0 nM
[2] = molecular target: Serine/threonine-protein kinase B-raf (Homo sapiens) (UniProt P15056); conditions: Compound concentration 1000.0 nM
[3] = molecular target: Cyclin-dependent kinase 5 (Homo sapiens) (UniProt Q00535); conditions: Compound concentration 1000.0 nM
[4] = molecular target: Cyclin-dependent kinase-like 2 (Homo sapiens) (UniProt Q92772); conditions: Compound concentration 1000.0 nM
[5] = molecular target: Dual specificity protein kinase CLK1 (Homo sapiens) (UniProt P49759); conditions: Compound concentration 1000.0 nM
Chain of Dual specificity protein kinase CLK1 (Homo sapiens) (P49759 whole entry, looked up): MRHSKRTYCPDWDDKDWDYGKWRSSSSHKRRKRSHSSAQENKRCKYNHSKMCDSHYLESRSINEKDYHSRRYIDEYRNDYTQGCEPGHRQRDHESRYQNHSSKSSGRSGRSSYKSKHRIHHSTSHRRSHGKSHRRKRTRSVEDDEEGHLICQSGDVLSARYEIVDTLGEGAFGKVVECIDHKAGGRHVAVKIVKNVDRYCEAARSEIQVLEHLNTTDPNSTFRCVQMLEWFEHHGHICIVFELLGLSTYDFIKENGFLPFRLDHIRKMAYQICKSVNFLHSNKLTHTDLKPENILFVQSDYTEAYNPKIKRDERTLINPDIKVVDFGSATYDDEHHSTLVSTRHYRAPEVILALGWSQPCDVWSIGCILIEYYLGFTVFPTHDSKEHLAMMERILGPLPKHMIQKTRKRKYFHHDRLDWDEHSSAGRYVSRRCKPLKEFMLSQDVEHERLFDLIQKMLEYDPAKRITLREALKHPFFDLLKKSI

[6] = molecular target: Serine/threonine-protein kinase MRCK gamma (Homo sapiens) (UniProt Q6DT37); conditions: Compound concentration 1000.0 nM
[7] = test system: Epidermal growth factor receptor (Homo sapiens), P00533 [G719C]; conditions: Compound concentration 1000.0 nM
[8] = molecular target: Ephrin type-A receptor 3 (Homo sapiens) (UniProt P29320); conditions: Compound concentration 1000.0 nM
Chain of Ephrin type-A receptor 3 (Homo sapiens) (P29320 whole entry): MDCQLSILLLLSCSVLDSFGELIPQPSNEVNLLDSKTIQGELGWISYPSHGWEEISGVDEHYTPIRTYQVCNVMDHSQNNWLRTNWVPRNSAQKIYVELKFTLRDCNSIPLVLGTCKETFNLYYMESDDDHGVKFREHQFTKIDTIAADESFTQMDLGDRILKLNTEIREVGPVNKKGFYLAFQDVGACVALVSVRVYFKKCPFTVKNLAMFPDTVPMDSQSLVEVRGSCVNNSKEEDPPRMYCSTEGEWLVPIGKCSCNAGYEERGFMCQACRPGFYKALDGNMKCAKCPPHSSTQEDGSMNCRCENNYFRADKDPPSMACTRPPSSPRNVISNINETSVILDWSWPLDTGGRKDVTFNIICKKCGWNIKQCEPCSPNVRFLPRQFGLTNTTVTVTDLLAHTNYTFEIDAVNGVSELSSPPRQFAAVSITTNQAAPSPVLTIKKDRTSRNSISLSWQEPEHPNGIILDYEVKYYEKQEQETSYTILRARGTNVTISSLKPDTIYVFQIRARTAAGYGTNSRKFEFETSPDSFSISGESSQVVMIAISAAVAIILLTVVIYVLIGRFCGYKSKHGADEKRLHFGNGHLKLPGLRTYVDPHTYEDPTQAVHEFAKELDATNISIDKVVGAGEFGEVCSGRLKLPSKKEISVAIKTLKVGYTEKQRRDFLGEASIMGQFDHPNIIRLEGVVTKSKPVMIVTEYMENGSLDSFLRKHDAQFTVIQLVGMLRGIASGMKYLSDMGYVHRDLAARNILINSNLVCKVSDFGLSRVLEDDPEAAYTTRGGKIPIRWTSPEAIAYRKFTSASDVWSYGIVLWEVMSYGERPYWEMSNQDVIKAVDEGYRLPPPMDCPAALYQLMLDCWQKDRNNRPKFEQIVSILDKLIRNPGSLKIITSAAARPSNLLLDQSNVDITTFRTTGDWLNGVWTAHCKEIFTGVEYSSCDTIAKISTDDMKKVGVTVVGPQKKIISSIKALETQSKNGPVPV

[9] = molecular target: Tyrosine-protein kinase Fgr (Homo sapiens) (UniProt P09769); conditions: Compound concentration 1000.0 nM
[10] = test system: Receptor-type tyrosine-protein kinase FLT3 (Homo sapiens), P36888 [D835V]; conditions: Compound concentration 1000.0 nM
[11] = test system: Receptor-type tyrosine-protein kinase FLT3 (Homo sapiens), P36888 [UNDEFINED MUTATION]; conditions: Compound concentration 1000.0 nM
[12] = test system: Receptor-type tyrosine-protein kinase FLT3 (Homo sapiens), P36888 [R834Q]; conditions: Compound concentration 1000.0 nM
[13] = molecular target: Glycogen synthase kinase-3 beta (Homo sapiens) (UniProt P49841); conditions: Compound concentration 1000.0 nM
[14] = molecular target: Hormonally up-regulated neu tumor-associated kinase (Homo sapiens) (UniProt P57058); conditions: Compound concentration 1000.0 nM
[15] = molecular target: Serine/threonine-protein kinase ICK (Homo sapiens) (UniProt Q9UPZ9); conditions: Compound concentration 1000.0 nM
[16] = molecular target: Interleukin-1 receptor-associated kinase 3 (Homo sapiens) (UniProt Q9Y616); conditions: Compound concentration 1000.0 nM
Chain of Interleukin-1 receptor-associated kinase 3 (Homo sapiens) (Q9Y616 whole entry): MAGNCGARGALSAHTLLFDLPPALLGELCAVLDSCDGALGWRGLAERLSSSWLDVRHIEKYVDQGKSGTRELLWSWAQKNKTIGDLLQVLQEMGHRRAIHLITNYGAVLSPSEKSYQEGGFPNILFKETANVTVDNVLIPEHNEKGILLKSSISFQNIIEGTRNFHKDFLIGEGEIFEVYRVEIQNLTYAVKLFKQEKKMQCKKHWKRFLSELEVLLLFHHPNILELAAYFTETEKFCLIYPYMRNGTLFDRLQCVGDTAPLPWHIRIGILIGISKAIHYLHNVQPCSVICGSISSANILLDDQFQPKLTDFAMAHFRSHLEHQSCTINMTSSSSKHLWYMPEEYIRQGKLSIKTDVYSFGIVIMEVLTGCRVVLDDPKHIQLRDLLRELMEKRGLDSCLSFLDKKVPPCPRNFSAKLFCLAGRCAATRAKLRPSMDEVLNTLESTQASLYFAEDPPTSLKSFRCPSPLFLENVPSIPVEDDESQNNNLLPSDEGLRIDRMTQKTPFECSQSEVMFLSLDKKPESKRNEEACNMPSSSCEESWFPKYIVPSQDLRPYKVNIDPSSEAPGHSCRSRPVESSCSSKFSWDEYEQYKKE

[17] = molecular target: Tyrosine-protein kinase JAK3 (Homo sapiens) (UniProt P52333); conditions: Compound concentration 1000.0 nM
[18] = test system: Mast/stem cell growth factor receptor Kit (Homo sapiens), P10721 [V559D,V654A]; conditions: Compound concentration 1000.0 nM
[19] = molecular target: Serine/threonine-protein kinase LATS1 (Homo sapiens) (UniProt O95835); conditions: Compound concentration 1000.0 nM
[20] = molecular target: MAP/microtubule affinity-regulating kinase 3 (Homo sapiens) (UniProt P27448); conditions: Compound concentration 1000.0 nM
Chain of MAP/microtubule affinity-regulating kinase 3 (Homo sapiens) (P27448 whole entry, looked up): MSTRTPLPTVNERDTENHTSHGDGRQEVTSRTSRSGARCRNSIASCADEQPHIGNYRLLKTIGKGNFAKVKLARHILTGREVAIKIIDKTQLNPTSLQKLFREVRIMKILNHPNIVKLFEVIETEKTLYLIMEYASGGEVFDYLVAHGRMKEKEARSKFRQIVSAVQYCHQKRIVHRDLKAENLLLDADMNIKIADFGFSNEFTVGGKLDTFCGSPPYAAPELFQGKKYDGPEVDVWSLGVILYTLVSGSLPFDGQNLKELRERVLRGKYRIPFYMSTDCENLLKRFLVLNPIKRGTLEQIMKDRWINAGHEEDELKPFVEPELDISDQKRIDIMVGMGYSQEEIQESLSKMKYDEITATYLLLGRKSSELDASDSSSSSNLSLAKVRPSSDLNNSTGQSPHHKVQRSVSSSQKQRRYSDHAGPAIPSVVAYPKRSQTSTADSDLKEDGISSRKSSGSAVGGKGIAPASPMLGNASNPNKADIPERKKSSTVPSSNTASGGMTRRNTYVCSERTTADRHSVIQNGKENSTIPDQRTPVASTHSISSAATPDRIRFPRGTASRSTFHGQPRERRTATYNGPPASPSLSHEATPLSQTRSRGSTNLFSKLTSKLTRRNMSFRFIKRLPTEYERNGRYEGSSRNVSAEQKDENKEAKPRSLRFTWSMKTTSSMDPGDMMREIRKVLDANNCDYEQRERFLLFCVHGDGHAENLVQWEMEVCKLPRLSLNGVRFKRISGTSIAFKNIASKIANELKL

[21] = molecular target: Myosin-IIIb (Homo sapiens) (UniProt Q8WXR4); conditions: Compound concentration 1000.0 nM
[22] = molecular target: Mitogen-activated protein kinase kinase kinase 14 (Homo sapiens) (UniProt Q99558); conditions: Compound concentration 1000.0 nM
[23] = molecular target: Mitogen-activated protein kinase 13 (Homo sapiens) (UniProt O15264); conditions: Compound concentration 1000.0 nM
[24] = molecular target: Ribosomal protein S6 kinase alpha-5 (Homo sapiens) (UniProt O75582); conditions: Compound concentration 1000.0 nM
Chain of Ribosomal protein S6 kinase alpha-5 (Homo sapiens) (O75582 whole entry, looked up): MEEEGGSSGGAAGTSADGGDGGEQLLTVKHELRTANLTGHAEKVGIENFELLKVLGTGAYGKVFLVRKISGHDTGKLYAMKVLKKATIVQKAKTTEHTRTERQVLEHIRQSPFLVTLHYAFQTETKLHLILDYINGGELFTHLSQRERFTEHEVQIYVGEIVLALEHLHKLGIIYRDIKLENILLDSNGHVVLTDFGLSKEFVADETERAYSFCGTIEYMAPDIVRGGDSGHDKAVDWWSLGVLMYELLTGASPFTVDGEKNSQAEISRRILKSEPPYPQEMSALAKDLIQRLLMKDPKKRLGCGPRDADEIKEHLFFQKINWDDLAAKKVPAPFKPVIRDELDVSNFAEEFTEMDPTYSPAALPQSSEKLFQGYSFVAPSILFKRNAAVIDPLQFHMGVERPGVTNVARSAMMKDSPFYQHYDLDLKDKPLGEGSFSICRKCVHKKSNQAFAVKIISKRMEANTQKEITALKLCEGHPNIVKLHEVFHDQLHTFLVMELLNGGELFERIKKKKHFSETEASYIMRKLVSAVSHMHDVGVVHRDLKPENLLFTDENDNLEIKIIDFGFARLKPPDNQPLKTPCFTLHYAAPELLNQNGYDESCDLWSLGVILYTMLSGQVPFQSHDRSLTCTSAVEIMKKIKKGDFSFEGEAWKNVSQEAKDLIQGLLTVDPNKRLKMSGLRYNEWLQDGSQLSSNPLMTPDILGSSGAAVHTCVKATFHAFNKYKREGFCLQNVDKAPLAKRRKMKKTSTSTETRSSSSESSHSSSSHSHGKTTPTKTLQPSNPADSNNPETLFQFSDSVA

[25] = molecular target: Dual specificity protein kinase TTK (Homo sapiens) (UniProt P33981); conditions: Compound concentration 1000.0 nM
[26] = molecular target: Serine/threonine-protein kinase WNK4 (Homo sapiens) (UniProt Q96J92); conditions: Compound concentration 1000.0 nM
[27] = molecular target: Serine/threonine-protein kinase 32A (Homo sapiens) (UniProt Q8WU08); conditions: Compound concentration 1000.0 nM
[28] = molecular target: T1, 5-hydroxytryptamine receptor 1A (Homo sapiens) (UniProt P08908); conditions: Compound concentration 10.0 uM
T1 sequence (whole entry): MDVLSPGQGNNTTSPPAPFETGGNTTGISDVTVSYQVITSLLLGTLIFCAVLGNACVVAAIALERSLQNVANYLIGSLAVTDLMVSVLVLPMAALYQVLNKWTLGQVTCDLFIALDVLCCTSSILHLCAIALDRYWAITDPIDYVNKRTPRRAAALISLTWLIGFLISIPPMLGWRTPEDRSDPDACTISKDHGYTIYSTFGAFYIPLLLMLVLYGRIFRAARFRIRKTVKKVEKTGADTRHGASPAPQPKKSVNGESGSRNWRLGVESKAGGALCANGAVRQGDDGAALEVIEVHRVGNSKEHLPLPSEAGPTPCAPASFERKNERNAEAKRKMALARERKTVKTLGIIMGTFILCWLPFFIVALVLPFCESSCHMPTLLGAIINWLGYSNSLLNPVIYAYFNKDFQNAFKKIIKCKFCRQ

[29] = molecular target: 5-hydroxytryptamine receptor 2B (Homo sapiens) (UniProt P41595); conditions: Compound concentration 10.0 uM
[30] = molecular target: T2, Muscarinic acetylcholine receptor M4 (Homo sapiens) (UniProt P08173); conditions: Compound concentration 10.0 uM
T2 sequence (whole entry): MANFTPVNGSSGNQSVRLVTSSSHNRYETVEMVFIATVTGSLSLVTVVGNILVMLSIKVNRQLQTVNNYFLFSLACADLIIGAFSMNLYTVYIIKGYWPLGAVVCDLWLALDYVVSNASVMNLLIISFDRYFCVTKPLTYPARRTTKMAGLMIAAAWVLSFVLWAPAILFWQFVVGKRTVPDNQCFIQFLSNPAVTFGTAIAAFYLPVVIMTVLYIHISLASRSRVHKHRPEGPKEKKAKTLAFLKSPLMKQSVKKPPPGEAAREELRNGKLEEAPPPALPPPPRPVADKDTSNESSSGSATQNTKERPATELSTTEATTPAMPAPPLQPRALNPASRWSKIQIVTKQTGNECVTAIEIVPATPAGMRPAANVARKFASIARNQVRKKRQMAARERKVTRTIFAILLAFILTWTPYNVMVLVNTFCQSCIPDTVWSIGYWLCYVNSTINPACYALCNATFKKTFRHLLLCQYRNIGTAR

[31] = molecular target: GABA-A receptor; anion channel (Rattus norvegicus) (UniProt O09028+P15431+P18506+P18508+P19969+P20236+P23574+P23576+P28471+P28473+P30191+P62813+P63079+P63138+Q91ZM7+Q9ES14); conditions: Compound concentration 10.0 uM

Chain of Cyclin-dependent kinase 5 (Homo sapiens) (Q00535 whole entry, looked up): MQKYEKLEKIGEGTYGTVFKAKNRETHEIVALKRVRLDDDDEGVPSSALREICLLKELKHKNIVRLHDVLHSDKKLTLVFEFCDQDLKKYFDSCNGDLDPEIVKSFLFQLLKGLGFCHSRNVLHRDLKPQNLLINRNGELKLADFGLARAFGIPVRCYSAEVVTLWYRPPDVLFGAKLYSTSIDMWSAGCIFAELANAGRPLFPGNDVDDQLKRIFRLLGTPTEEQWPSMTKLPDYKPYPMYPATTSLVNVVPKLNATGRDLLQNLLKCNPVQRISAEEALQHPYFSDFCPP
Chain of BMP-2-inducible protein kinase (Homo sapiens) (Q9NSY1 whole entry, looked up): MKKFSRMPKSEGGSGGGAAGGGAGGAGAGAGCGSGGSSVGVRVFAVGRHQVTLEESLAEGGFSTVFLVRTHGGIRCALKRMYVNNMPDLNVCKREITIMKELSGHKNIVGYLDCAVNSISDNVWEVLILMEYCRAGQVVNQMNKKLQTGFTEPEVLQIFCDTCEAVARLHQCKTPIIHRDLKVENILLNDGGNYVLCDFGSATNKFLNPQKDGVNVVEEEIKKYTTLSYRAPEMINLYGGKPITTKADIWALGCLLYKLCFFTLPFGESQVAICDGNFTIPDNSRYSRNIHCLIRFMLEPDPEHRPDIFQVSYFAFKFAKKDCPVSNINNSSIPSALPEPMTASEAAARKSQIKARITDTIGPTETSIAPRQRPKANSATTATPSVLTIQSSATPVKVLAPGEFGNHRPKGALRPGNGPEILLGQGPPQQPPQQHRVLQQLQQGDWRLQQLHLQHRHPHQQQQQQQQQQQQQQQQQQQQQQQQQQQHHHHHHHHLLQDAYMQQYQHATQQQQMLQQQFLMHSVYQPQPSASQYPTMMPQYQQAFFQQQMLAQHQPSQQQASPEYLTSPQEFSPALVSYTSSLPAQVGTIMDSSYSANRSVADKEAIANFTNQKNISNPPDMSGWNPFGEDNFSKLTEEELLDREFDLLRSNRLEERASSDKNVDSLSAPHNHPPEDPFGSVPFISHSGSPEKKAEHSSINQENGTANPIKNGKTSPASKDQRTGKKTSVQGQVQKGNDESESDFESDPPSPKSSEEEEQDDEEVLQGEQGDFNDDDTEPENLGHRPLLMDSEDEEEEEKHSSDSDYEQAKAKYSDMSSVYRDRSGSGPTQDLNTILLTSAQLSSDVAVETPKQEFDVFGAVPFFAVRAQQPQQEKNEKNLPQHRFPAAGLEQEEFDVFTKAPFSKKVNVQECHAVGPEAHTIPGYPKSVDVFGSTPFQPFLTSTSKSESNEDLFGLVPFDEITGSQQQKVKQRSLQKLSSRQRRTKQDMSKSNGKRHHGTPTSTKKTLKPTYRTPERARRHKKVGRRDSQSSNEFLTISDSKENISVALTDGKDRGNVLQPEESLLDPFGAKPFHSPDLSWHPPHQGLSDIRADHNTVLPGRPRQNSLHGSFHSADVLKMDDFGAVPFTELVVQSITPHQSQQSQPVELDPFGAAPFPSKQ

Cn1cncc1[C@@](O)(COc1ccc(C#N)cc1-c1ccc(OC(F)(F)F)cc1)c1ccc(C#N)cc1 [A-108]
inactive: residual activity [1] 79% | residual activity [2] 100% | residual activity [3] 96% | residual activity [4] 93% | residual activity [5] 100% | residual activity [6] 96% | residual activity [7] 66% | residual activity [8] 100% | residual activity [9] 100% | residual activity [10] 89% | residual activity [11] 89% | residual activity [12] 100% | residual activity [13] 100% | residual activity [14] 100% | residual activity [15] 75% | residual activity [16] 91% | residual activity [17] 100% | residual activity [18] 100% | residual activity [19] 100% | residual activity [20] 93% | residual activity [21] 55% | residual activity [22] 92% | residual activity [23] 90% | residual activity [24] 81% | residual activity [25] 100% | residual activity [26] 85% | residual activity [27] 75% | inhibition [28] -6.52% | inhibition [29] 18.6% | inhibition [30] -9.7% | inhibition [31] 6.36%

Cn1cncc1[C@](O)(COc1ccc(C#N)cc1-c1ccc(OC(F)(F)F)cc1)c1ccc(C#N)cc1 [ABT-100]
inactive: residual activity [1] 97% | residual activity [2] 84% | residual activity [3] 92% | residual activity [4] 88% | residual activity [5] 70% | residual activity [6] 85% | residual activity [7] 82% | residual activity [8] 90% | residual activity [9] 100% | residual activity [10] 100% | residual activity [11] 100% | residual activity [12] 98% | residual activity [13] 93% | residual activity [14] 68% | residual activity [15] 100% | residual activity [16] 71% | residual activity [17] 72% | residual activity [18] 100% | residual activity [19] 87% | residual activity [20] 100% | residual activity [21] 71% | residual activity [22] 88% | residual activity [23] 87% | residual activity [24] 76% | residual activity [25] 100% | residual activity [26] 100% | residual activity [27] 100% | inhibition [28] 10.8% | inhibition [29] -5.75% | inhibition [30] 6.8% | inhibition [31] 2.72%
